Assay results reported in paper PMC3993905 (2014).

Tested on: MMP-2
Test: active MMP-2
Details: human, room temperature, up to 6 h

cleaved bond | Substance
S-L, 6 h | Ac-KKYIPVSLRSGYKK-NH2
G-I, 6 h | Ac-KKYGPQGIAGQYKK-NH2
